Measured values taken from patent publication US20250129103A1, “METHODS FOR TREATMENT OF CANCER” (Frontier Medicines Corporation, priority 2022, published 2025).

Target: KRAS G12C (GMPPNP-loaded) and cRAF (Ras-binding domain) interaction (Homo sapiens (Human), UniProt P01116, C118S/C51S/C80L/G12C)
Assay: Inhibition of KRAS G12C and cRAF binding (AlphaScreen)
Conditions: KRAS G12C loaded with GMPPNP, cRaf RBD, 2 hours preincubation; read-out: Raf-1 RBD K-Ras IC50
Description: Compounds were diluted in 100% DMSO and each compound concentration was spotted at 200 nl/well onto low volume, white 384 well plates. […] KRAS G12C was preloaded with the GTP analogue Guanosine 5′-[β,γ-imido]triphosphate (GMPPNP). The KRAS G12C was diluted in 25 mM Hepes, pH 7.4, 150 mM NaCl, 5 mM MgCl2, 0.01% TritonX-100 and 10 μM GMPPNP and added at 10 ul/well to compound-spotted plates resulting in a DMSO concentration of 2%. Plates were incubated for 2 hours. A mixture of RBD and the AlphaScreen streptavidin donor and glutathione acceptor beads diluted in 25 mM Hepes, pH 7.4, 150 mM NaCl, 5 mM MgCl2, 0.01% TritonX-100 and 2% DMSO was then added at 10 ul/well and incubated for 60-90 minutes before the samples were read for emission at 570 nm after excitation of the donor beads at 680 nm. All incubations were performed at room temperature. The final top compound concentration was 50 μM with 1:3 titrations for 10-point dose response curves. […] IC50S were determined using nonlinear regression fit of [inhibitor] vs. response (4 parameters). […]

KRAS G12C (GMPPNP-loaded) and cRAF (Ras-binding domain) interaction, sequence (P01116 other isoform, or with tags, fused parts or gaps G12C/C51S/C80L/C118S): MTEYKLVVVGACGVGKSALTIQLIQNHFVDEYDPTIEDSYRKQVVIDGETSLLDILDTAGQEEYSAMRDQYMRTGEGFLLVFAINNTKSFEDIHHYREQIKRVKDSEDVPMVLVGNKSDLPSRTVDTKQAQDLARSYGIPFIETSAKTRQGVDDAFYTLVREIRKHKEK

Row | SMILES | IC50 [nM]
1 | N#CC[C@H]1CN(c2nc(OCC34CCCN3CCC4)nc3c2CCN(c2cccc4cccc(Cl)c24)C3)CCN1C(=O)/C=C/c1cnccn1 [Compound 39] | > 500
2 | Cn1cnc(/C=C/C(=O)N2CCN(c3nc(OC[C@@]45CCCN4C[C@H](F)C5)nc4c(F)c(-c5cccc6cccc(Cl)c56)ncc34)C[C@@H]2CC#N)n1 [Compound 40] | > 500
3 | CC(F)(F)c1noc(/C=C/C(=O)N2CCN(c3nc(OCC45CCCN4CCC5)nc4c3CCN(c3cccc5cccc(Cl)c35)C4)C[C@@H]2CC#N)n1 [Compound 41] | 10 to 100
4 | Cn1cnc(/C=C/C(=O)N2CCN(c3nc(OC[C@@]45CCCN4C[C@H](F)C5)nc4c(F)c(-c5cccc6cccc(Cl)c56)ncc34)C[C@@H]2CC#N)c1 [Compound 42] | > 500
5 | Cn1cnc(/C=C/C(=O)N2CCN(c3nc(OC[C@@]45CCCN4C[C@H](F)C5)nc4c3CCN(c3cccc5cccc(Cl)c35)C4)C[C@@H]2CC#N)n1 [Compound 43] | > 500
6 | Cn1cnc(/C=C/C(=O)N2CCN(c3nc(OC[C@@]45CCCN4C[C@H](F)C5)nc4c3CCN(c3cccc5cccc(Cl)c35)C4)C[C@@H]2CC#N)c1 [Compound 44] | 100 to 500
7 | CC1(c2noc(/C=C/C(=O)N3CCN(c4nc(OCC56CCCN5CCC6)nc5c4CCN(c4cccc6cccc(Cl)c46)C5)C[C@@H]3CC#N)n2)CC1 [Compound 45] | 10 to 100
8 | CC1(c2noc(/C=C/C(=O)N3CCN(c4nc(OC[C@@]56CCCN5C[C@H](F)C6)nc5c4CCN(c4cccc6cccc(Cl)c46)C5)C[C@@H]3CC#N)n2)CC1 [Compound 46] | 10 to 100
9 | N#CC[C@H]1CN(c2nc(OC[C@@]34CCCN3C[C@H](F)C4)nc3c(F)c(-c4nc(N)cc5cccc(Cl)c45)ncc23)CCN1C(=O)/C=C/CN1CCOCC1 [Compound 59] | < 10
10 | N#CC[C@H]1CN(c2nc(OCC34CCCN3CCC4)nc3c2CCN(c2cccc4cccc(Cl)c24)C3)CCN1C(=O)/C=C/CN1C[C@H]2C[C@@H]1CO2 [Compound 63] | < 10
11 | CCc1c(F)ccc2cccc(-c3ncc4c(N5CCN(C(=O)/C=C/c6cc(C)nc(C)n6)[C@@H](CC#N)C5)nc(OC[C@@]56CCCN5C[C@H](F)C6)nc4c3F)c12 [Compound 98, 2-((S)-1-((E)-3-(2,6-dimethylpyrimidin-4-yl)acryloyl)-4-(7-(8-ethyl-7-fluoronaphthalen-1-yl)-8-fluoro-2-(((2R,7aS)-2-fluorotetrahydro-1H-pyrrolizin-7a(5H)-yl)methoxy)pyrido[4,3-d]pyrimidin-4-yl)piperazin-2-yl)acetonitrile] | < 10
12 | Cc1c(F)ccc2cccc(-c3ncc4c(N5CCN(C(=O)/C=C/CN6[C@@H]7CC[C@H]6COC7)[C@@H](CC#N)C5)nc(OC[C@@]56CCCN5C[C@H](F)C6)nc4c3F)c12 [Compound 106, 2-((S)-1-((E)-4-((1R,5S)-3-oxa-8-azabicyclo[3.2.1]octan-8-yl)but-2-enoyl)-4-(8-fluoro-7-(7-fluoro-8-methylnaphthalen-1-yl)-2-(((2R,7aS)-2-fluorotetrahydro-1H-pyrrolizin-7a(5H)-yl)methoxy)pyrido[4,3-d]pyrimidin-4-yl)piperazin-2-yl)acetonitrile] | < 10
13 | CC1(/C=C/C(=O)N2CCN(c3nc(OCC45CCCN4CCC5)nc4c3CCN(c3cccc5cccc(Cl)c35)C4)C[C@@H]2CC#N)COC1 [Compound 116] | > 500
14 | Cn1nnc(/C=C/C(=O)N2CCN(c3nc(OCC45CCCN4CCC5)nc4c3CCN(c3cccc5cccc(Cl)c35)C4)C[C@@H]2CC#N)n1 [Compound 119] | > 500
15 | CC(C)c1noc(/C=C/C(=O)N2CCN(c3nc(OC[C@@]45CCCN4C[C@H](F)C5)nc4c(F)c(-c5cccc6cccc(Cl)c56)ncc34)C[C@@H]2CC#N)n1 [Compound 121] | 100 to 500
16 | CC(C)c1noc(/C=C/C(=O)N2CCN(c3nc(OC[C@@]45CCCN4C[C@H](F)C5)nc4c3CCN(c3cccc5cccc(Cl)c35)C4)C[C@@H]2CC#N)n1 [Compound 125] | 10 to 100
17 | CC(C)c1noc(/C=C/C(=O)N2CCN(c3nc(OCC45CCCN4CCC5)nc4c(F)c(-c5cccc6ccc(F)c(Cl)c56)ncc34)C[C@@H]2CC#N)n1 [Compound 129] | 100 to 500
18 | C[C@@H](F)c1noc(/C=C/C(=O)N2CCN(c3nc(OC[C@@]45CCCN4C[C@H](F)C5)nc4c(F)c(-c5cccc6cccc(Cl)c56)ncc34)C[C@@H]2CC#N)n1 [Compound 130] | 10 to 100
19 | CC(C)c1noc(/C=C/C(=O)N2CCN(c3nc(OC[C@@]45CCCN4C[C@H](F)C5)nc4c(F)c(-c5cccc6ccc(F)c(Cl)c56)ncc34)C[C@@H]2CC#N)n1 [Compound 132] | 10 to 100
20 | CC(C)c1noc(/C=C/C(=O)N2CCN(c3nc(OC[C@]45CCCN4C[C@H](F)C5)nc4c(F)c(-c5cccc6ccc(F)c(Cl)c56)ncc34)C[C@@H]2CC#N)n1 [Compound 133] | 10 to 100
21 | CC(C)c1noc(/C=C/C(=O)N2CCN(c3nc(OC[C@@]45CCCN4C[C@H](F)C5)nc4c(F)c(-c5nc(N)cc6cccc(F)c56)ncc34)C[C@@H]2CC#N)n1 [Compound 134] | 10 to 100
22 | N#CC[C@H]1CN(c2nc(OCC34CCCN3CCC4)nc3c2CCN(c2cccc4cccc(Cl)c24)C3)CCN1C(=O)/C=C/CN1CC2CC(C1)O2 [Compound 166] | < 10

The remaining lines, values ahead:

Row | IC50 [nM] | SMILES
23 | 10 to 100 | C[C@H](F)c1noc(/C=C/C(=O)N2CCN(c3nc(OC[C@@]45CCCN4C[C@H](F)C5)nc4c(F)c(-c5cccc6cccc(Cl)c56)ncc34)C[C@@H]2CC#N)n1 [Compound 137]
24 | > 500 | CC(C)c1noc(/C=C/C(=O)N2CCN(c3nc(OCC45CCCN4CCC5)nc4c3CCN(c3ccccc3C(F)F)C4)C[C@@H]2CC#N)n1 [Compound 144]
25 | 10 to 100 | N#CC[C@H]1CN(c2nc(OCC34CCCN3CCC4)nc3c2CCN(c2cccc4cccc(Cl)c24)C3)CCN1C(=O)/C=C/CCN1CCOCC1 [Compound 153]
26 | 10 to 100 | N#CC[C@H]1CN(c2nc(OCC34CCCN3CCC4)nc3c2CCN(c2cccc4cccc(Cl)c24)C3)CCN1C(=O)/C=C/CN1CCOC2CC21 (stereo partly shown) [Compound 164]
27 | < 10 | N#CC[C@H]1CN(c2nc(OCC34CCCN3CCC4)nc3c2CCN(c2cccc4cccc(Cl)c24)C3)CCN1C(=O)/C=C/CN1CC2CCC(C1)O2 [Compound 167]
28 | < 10 | CO[C@@H]1CCN(C/C=C/C(=O)N2CCN(c3nc(OCC45CCCN4CCC5)nc4c3CCN(c3cccc5cccc(Cl)c35)C4)C[C@@H]2CC#N)C1 [Compound 173]
29 | < 10 | N#CC[C@H]1CN(c2nc(OCC34CCCN3CCC4)nc3c2CCN(c2cccc4cccc(Cl)c24)C3)CCN1C(=O)/C=C/CN1CC[C@H](F)C1 [Compound 174]
30 | < 10 | N#CC[C@H]1CN(c2nc(OCC34CCCN3CCC4)nc3c2CCN(c2cccc4cccc(Cl)c24)C3)CCN1C(=O)/C=C/CN1CC[C@@H](F)C1 [Compound 175]
31 | 10 to 100 | N#CC[C@H]1CN(c2nc(OCC34CCCN3CCC4)nc3c2CCN(c2cccc4cccc(Cl)c24)C3)CCN1C(=O)/C=C/CN1CCC(F)(F)C1 [Compound 176]
32 | 10 to 100 | N#CC[C@H]1CN(c2nc(OCC34CCCN3CCC4)nc3c2CCN(c2cccc4cccc(Cl)c24)C3)CCN1C(=O)/C=C/CN1CC(F)(F)C1 [Compound 177]
33 | 100 to 500 | N#CC[C@H]1CN(c2nc(OCC34CCCN3CCC4)nc3c2CCN(c2cccc4cccc(Cl)c24)C3)CCN1C(=O)/C=C/CN1CCCS1(=O)=O [Compound 178]
34 | < 10 | N#CC[C@H]1CN(c2nc(OCC34CCCN3CCC4)nc3c(F)c(-c4cccc5ccc(F)c(Cl)c45)ncc23)CCN1C(=O)/C=C/CN1CCOCC1 [Compound 179]
